From patent US7915012B2, “Methods for screening for inhibitors of TRPV2 activation” (Korea University Industry and Academic Collaboration …, priority 2008, dated 2011)
“Also recorded” adds a separate entry of the source.

Tests used:
mTRPV3 = target: T1, mTRPV3 (Mus musculus, UniProt Q8K424, A9V); experiment: Fluo-3 calcium imaging in TRPV3 transfected HEK293T cell line; assay type: cell-based; conditions: 100 μM probenecid
T1 construct: expressed in transfected cells; host or cells: HEK293T (ATCC CRL-11268)
T1 sequence (Q8K424 1-791 A9V): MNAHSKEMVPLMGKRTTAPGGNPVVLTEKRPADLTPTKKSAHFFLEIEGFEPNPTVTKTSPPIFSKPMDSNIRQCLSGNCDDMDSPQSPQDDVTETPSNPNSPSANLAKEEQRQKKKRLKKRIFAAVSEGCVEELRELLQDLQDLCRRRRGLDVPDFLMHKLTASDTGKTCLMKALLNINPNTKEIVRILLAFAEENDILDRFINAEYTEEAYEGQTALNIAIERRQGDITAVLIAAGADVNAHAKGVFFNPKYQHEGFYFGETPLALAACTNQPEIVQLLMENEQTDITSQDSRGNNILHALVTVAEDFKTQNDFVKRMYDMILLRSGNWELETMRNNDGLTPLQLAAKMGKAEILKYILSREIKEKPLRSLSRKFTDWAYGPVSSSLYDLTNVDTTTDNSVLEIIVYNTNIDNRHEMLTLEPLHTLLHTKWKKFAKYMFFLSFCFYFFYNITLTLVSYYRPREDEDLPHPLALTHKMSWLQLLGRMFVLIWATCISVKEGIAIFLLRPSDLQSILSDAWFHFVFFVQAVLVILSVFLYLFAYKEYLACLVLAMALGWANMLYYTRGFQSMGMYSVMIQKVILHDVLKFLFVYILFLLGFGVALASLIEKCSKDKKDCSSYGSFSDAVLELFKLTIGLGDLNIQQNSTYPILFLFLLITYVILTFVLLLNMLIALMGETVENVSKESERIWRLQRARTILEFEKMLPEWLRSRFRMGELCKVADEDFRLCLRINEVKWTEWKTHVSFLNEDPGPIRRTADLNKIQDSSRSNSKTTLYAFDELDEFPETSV
Description: (§1) HEK293T cell line (ATCC CRL-1 1268) was transiently transfected with plasmid DNA containing polynucleotide encoding […] (SEQ. ID. NO: 1), rTRPV2 (SEQ. ID. NO: 2), mTRPV3 (SEQ. ID. NO: 3), rTRPV4 (SEQ. ID. NO: 4), mTRPM8 (SEQ. ID. NO: 5) or mTRPA1 (SEQ. ID. NO: 6).
(§2) Particularly, the HEK293T cell line was transiently transfected with individual TRP channel plasmid (pcDNA3.1 containing polynucleotide encoding rTRPV1, rTRPV2, mTRPV3, rTRPV4, mTRPM8 or mTRPA1), and 600 ng/well of pCDNA3 (Invitrogen Corp., USA; containing green fluorescent protein (GFP) cDNA) using Fugene6 (Roche Diagnostics, USA) according to manufacturer's instruction. The transformed cells were cultured in DMEM/F12 containing 10% FBS and 1% penicillin/streptomycin in a CO2 incubator for 24 hours. The cells were replated onto poly-L-lysine-coated glass coverslips, followed by further culture for 10-24 hours.
(§3) Particularly, the transfected cell line of Example <3-1> and Example <3-2> was loaded with Fluo-3AM (5 μM; Sigma Aldrich, USA) in the bath solution (140 mM NaCl, 5 mM KCl, 2 mM CaCl2, 1 mM MgCl2, 10 mM HEPES; adjusted to pH 7.4 with NaOH) containing 0.02% pluronic acid (Invitrogen, USA) at 37° C. for 1 hour. […]

rTRPV1 = target: T2, rTRPV1 (Rattus norvegicus, UniProt O35433); experiment: Fluo-3 calcium imaging in TRPV1 transfected HEK293T cell line; assay type: cell-based; conditions: 100 μM probenecid
T2 construct: expressed in transfected cells; host or cells: HEK293T (ATCC CRL-11268)
Description: as §1, §2, §3

Oral aversion test = assay type: in vivo, ICR mice
Description: Oral aversion test was confirmed according to the methods of Caterina M J, et al. (Science 288:306-313, 2000) and Kwan K Y, et al. (Neuron 50: 277-289, 2006). Particularly, adult ICR mice randomly selected and raised were allowed to drink water containing 0.125% saccharin (Sigma Aldrich, USA) only for three hours a day. Water and feed were provided for 4 days. Water and feed consumptions were measured everyday. On day 4, water containing 20 mM probenecid was provided for 3 hours. Statistical data were analyzed by two-tailed, unpaired Student's-t-test and the results were presented by mean ±S.E.M.

mTRPA1 = target: T3, mTRPA1 (Mus musculus, UniProt Q8BLA8); experiment: Fluo-3 calcium imaging in TRPA1 transfected HEK293T cell line; assay type: cell-based; conditions: 100 μM probenecid
T3 construct: expressed in transfected cells; host or cells: HEK293T (ATCC CRL-11268)
Description: as §1, §2, §3

[1] = Hindpaw licking/flicking behaviors; assay type: in vivo, mice; conditions: 10 minutes
Description: Inflammatory sensitization by probenecid was investigated. Particularly, 50 μl of 1% carrageenan (Sigma Aldrich, USA) was injected to the right hind paws of mice 3 hours before the probenecid injection or 50 μl of CFA (complete Freund's adjuvant; Sigma Aldrich, USA) was injected 24 hours before the probenecid injection. Before the experiment, the mice were adapted for one hour to the experimental environment. […] of vehicle (saline containing 3% DMSO and 0.5% Tween 80) alone or […] of vehicle containing probenecid (20 mM) was injected to the right hind paws of the mice.
The time spent for the hindpaw licking/flicking behaviors in mice were measured according to the method of Bandell M, et al. (Neuron 41:849-857, 2004) and Moqrich A, et al. (Science 307:1468-1472, 2005), for 10 minutes. Statistical data were analyzed by two-tailed, unpaired Student's-t-test and the results were presented by mean ±S.E.M. (***p<0.001, **p<0.01, *p<0.05 and ND, p>0.05).

T2 sequence (O35433 whole entry): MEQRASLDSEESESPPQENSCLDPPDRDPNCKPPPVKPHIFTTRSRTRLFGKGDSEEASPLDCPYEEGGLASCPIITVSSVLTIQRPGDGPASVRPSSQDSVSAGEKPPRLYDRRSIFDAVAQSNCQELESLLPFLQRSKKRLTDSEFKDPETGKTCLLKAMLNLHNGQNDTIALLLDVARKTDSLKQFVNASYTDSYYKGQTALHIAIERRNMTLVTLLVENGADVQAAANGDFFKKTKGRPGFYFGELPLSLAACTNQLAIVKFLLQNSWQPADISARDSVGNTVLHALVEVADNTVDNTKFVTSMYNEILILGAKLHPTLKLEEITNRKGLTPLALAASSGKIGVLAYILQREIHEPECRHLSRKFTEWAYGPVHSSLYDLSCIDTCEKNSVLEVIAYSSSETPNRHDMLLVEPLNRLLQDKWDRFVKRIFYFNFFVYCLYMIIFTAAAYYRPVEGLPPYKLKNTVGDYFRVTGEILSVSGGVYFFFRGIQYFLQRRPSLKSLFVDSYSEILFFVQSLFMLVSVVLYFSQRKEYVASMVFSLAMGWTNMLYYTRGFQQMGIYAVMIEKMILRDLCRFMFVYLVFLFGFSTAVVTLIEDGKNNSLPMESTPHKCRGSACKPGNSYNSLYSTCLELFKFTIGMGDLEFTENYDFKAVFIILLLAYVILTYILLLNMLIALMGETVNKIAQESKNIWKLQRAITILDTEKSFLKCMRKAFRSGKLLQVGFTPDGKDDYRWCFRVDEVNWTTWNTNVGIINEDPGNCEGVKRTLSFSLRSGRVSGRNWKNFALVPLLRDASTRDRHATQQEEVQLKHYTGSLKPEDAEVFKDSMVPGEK
T3 sequence (Q8BLA8 whole entry): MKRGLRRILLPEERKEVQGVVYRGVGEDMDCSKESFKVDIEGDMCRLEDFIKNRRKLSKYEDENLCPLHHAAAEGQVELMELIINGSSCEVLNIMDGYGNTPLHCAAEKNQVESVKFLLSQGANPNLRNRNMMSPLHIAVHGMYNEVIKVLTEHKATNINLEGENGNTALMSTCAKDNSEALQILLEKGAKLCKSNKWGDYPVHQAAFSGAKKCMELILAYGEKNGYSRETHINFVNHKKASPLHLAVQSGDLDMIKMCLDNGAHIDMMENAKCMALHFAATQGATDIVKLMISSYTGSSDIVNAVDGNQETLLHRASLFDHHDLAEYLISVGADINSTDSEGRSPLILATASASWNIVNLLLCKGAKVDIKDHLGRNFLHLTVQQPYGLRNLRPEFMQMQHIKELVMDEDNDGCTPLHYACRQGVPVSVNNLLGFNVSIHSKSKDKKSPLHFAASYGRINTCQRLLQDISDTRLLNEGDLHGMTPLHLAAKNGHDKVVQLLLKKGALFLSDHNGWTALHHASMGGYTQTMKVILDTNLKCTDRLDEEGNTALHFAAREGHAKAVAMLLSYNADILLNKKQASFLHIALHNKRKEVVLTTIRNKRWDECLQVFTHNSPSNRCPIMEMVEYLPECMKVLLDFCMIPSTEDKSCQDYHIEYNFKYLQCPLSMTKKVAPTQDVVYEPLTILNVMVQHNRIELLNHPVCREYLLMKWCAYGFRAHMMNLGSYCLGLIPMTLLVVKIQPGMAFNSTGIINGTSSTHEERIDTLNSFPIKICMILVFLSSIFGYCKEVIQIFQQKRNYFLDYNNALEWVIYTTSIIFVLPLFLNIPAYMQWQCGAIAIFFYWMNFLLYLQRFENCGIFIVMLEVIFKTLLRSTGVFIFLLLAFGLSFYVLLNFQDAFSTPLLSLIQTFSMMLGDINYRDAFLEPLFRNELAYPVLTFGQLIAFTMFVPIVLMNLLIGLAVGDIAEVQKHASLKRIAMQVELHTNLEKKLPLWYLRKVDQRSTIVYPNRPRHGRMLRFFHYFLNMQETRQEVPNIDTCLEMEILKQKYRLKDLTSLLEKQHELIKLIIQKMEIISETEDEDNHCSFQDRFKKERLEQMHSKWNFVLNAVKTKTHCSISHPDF

CCCN(CCC)S(=O)(=O)c1ccc(C(=O)O)cc1 [probenecid]
TRPV3 activation (calcium imaging) (mTRPV3): only TRPV2 was activated; also recorded: not confirmed
TRPV1 activation (calcium imaging) (rTRPV1): only TRPV2 was activated; also recorded: not confirmed
oral aversion (Oral aversion test; water containing 20 mM probenecid): did not induce oral aversion
water and feed consumption, treated versus not treated group (Oral aversion test; water containing 20 mM probenecid for 3 hours on day 4, n=5): no significant difference
TRPA1 activation (calcium imaging) (mTRPA1): only TRPV2 was activated; also recorded: not confirmed
hindpaw licking/flicking behavior in normal mice ([1]; 20 mM probenecid injected to the right hind paw): no significant changes in behavior
hindpaw licking/flicking behavior in mice with inflammation induced by carrageenan ([1]; 1% carrageenan 3 hours before, 20 mM probenecid to the right hind paw): significantly extended behavior time; also recorded: behavial changes were observed
hindpaw licking/flicking behavior in mice with inflammation induced by CFA ([1]; CFA 24 hours before, 20 mM probenecid to the right hind paw): significantly extended behavior time; also recorded: behavial changes were observed
